Values of other authors in paper PMC5962642, “Dynamic imaging of adaptive stress response pathway activation for prediction of drug induced liver injury” (Archives of Toxicology, 2018).

Key:
[1] = C-max obtained from FDA or literature; ref per compound (FDA, Dailymed, Xu, O’Brien, Khetani, Regenthal, Gustafsson, Dawson, Ogutu, Patel, Schmidt, Ravic, Keisu, Hu, Wagner); cited from earlier work
[2] = ref Chen et al. [2016], cited from earlier work; for DILI con. (DILI-concern labeling): FDA DILI labeling; for Hepa. (hepatotoxicity class): FDA labeling in eight classes of hepatotoxicity
[3] = ref livertox.nih.gov database; cited from earlier work

SMILES | Cmax [1] [µM] | DILI con. (DILI-concern labeling) [2] | Hepa. (hepatotoxicity class) [2] | Metab (metabolic potential) [3]
CN(C)c1nc(N(C)C)nc(N(C)C)n1 [Altretamine] | 3.76 | Amb.-DC | – | –
CC1(C)S[C@@H]2[C@H](NC(=O)[C@H](N)c3ccc(O)cc3)C(=O)N2[C@H]1C(=O)O [Amoxicillin] | 22.3 | Less-DC | 5 | –
CC(O)(CS(=O)(=O)c1ccc(F)cc1)C(=O)Nc1ccc(C#N)c(C(F)(F)F)c1 (stereo not drawn) [Bicalutamide] | 1.97 | – | 8 | YES
COc1ccccc1Oc1c(NS(=O)(=O)c2ccc(C(C)(C)C)cc2)nc(-c2ncccn2)nc1OCCO [Bosentan] | – | Most-DC | 7 | YES
O=C1CC2(CCCC2)CC(=O)N1CCCCN1CCN(c2ncccn2)CC1 [Buspirone] | 0.016 | Amb.-DC | – | –
CS(=O)(=O)OCCCCOS(C)(=O)=O [Busulfan] | 0.277 | Most-DC | 8 | –
C[C@H](CS)C(=O)N1CCC[C@H]1C(=O)O [Captopril] | 8.88 | – | 7 | –
NC(=O)N1c2ccccc2C=Cc2ccccc21 [Carbamazepine] | 50.8 | Most-DC | 7 | –
O=C(N[C@H](CO)[C@H](O)c1ccc([N+](=O)[O-])cc1)C(Cl)Cl [Chloramphenicol] | 46.4 | – | – | –
CCCNC(=O)NS(=O)(=O)c1ccc(Cl)cc1 [Chlorpropamide] | 130 | Less-DC | 2 | –
CN/C(=N/CCSCc1nc[nH]c1C)NC#N [Cimetidine] | 11.9 | Less-DC | 2 | YES
Clc1ccccc1C(c1ccccc1)(c1ccccc1)n1ccnc1 [Clotrimazole] | 0.087 | Less-DC | 3 | –
CN(C)/N=N/c1[nH]cnc1C(N)=O [Dacarbazine] | 20.6 | Most-DC | 6 | –
C#C[C@]1(O)CC[C@H]2[C@@H]3CCC4=Cc5oncc5C[C@]4(C)[C@H]3CC[C@@]21C [Danazol] | 0.109 | – | 8 | –
C[C@@H]1C[C@H]2[C@@H]3CCC4=CC(=O)C=C[C@]4(C)[C@@]3(F)[C@@H](O)C[C@]2(C)[C@@]1(O)C(=O)CO [Dexamethasone] | 0.224 | Amb.-DC | 3 | –
O=c1[nH]cnc2c1ncn2[C@H]1CC[C@@H](CO)O1 [Didanosine] | 9.83 | – | 8 | –
C[C@H]1O[C@@H](O[C@H]2[C@@H](O)C[C@H](O[C@H]3[C@@H](O)C[C@H](O[C@H]4CC[C@@]5(C)[C@H](CC[C@@H]6[C@@H]5C[C@@H](O)[C@]5(C)[C@@H](C7=CC(=O)OC7)CC[C@]65O)C4)O[C@@H]3C)O[C@@H]2C)C[C@H](O)[C@@H]1O [Digoxin] | 0.003 | – | 1 | –
COc1ccc([C@@H]2Sc3ccccc3N(CCN(C)C)C(=O)[C@@H]2OC(C)=O)cc1 [Diltiazem] | 0.356 | – | – | –
CCN(CC)C(=S)SSC(=S)N(CC)CC [Disulfiram] | 5.4 | – | – | –
CNC[C@H](O)c1ccc(O)c(O)c1 [Epinephrine] | 0.002 | No-DC | 1 | –

SMILES | Cmax [1] [µM] | DILI con. (DILI-concern labeling) [2] | Hepa. (hepatotoxicity class) [2] | Metab (metabolic potential) [3]
CC[C@H]1OC(=O)[C@H](C)[C@@H](O[C@H]2C[C@@](C)(OC)[C@@H](O)[C@H](C)O2)[C@H](C)[C@@H](O[C@@H]2O[C@H](C)C[C@H](N(C)C)[C@H]2O)[C@](C)(O)C[C@@H](C)C(=O)[C@H](C)[C@@H](O)[C@]1(C)O [Erythromycin] | 11 | – | – | –
CC[C@@H](CO)NCCN[C@@H](CC)CO [Ethambutol] | 24.5 | Most-DC | 8 | –
CCc1cccc2c3c([nH]c12)C(CC)(CC(=O)O)OCC3 (stereo not drawn) [Etodolac] | 68.5 | Most-DC | 8 | –
CC(C)OC(=O)C(C)(C)Oc1ccc(C(=O)c2ccc(Cl)cc2)cc1 [Fenofibrate] | 4.1 | – | 3 | –
O=c1[nH]c(=O)n([C@@H]2O[C@H](CO)[C@@H](O)[C@@H]2F)cc1I [Fialuridine] | 1 | Most-DC | 8 | –
CNCCC(Oc1ccc(C(F)(F)F)cc1)c1ccccc1 (stereo not drawn) [Fluoxetine] | – | – | 3 | –
Nc1nc2ncc(CNc3ccc(C(=O)N[C@@H](CCC(=O)O)C(=O)O)cc3)nc2c(=O)[nH]1 [Folic acid] | 0.043 | – | 1 | –
Nc1nc(O)c2ncn(COC(CO)CO)c2n1 [Ganciclovir] | 4.62 | – | 7 | –
CCC1=C(C)CN(C(=O)NCCc2ccc(S(=O)(=O)NC(=O)N[C@H]3CC[C@H](C)CC3)cc2)C1=O [Glimepiride] | 1.12 | Less-DC | 7 | –
COC1=CC(=O)C[C@@H](C)[C@]12Oc1c(Cl)c(OC)cc(OC)c1C2=O [Griseofulvin] | 4.54 | – | – | YES
OCCOCCN1CCN(C(c2ccccc2)c2ccc(Cl)cc2)CC1 (stereo not drawn) [Hydroxyzine] | 0.27 | No-DC | 1 | –
CN(C)CCCN1c2ccccc2CCc2ccccc21 [Imipramine] | 0.29 | – | – | YES
COc1ccc2c(c1)c(CC(=O)O)c(C)n2C(=O)c1ccc(Cl)cc1 [Indomethacin] | 5.59 | – | – | –
CC(C)NCC(O)c1ccc(O)c(O)c1 (stereo not drawn) [Isoproterenol] | 2.02 | No-DC | 1 | –
O=C(c1ccccc1)c1ccc2n1CCC2C(=O)O (stereo not drawn) [Ketorolac] | 3.53 | Less-DC | 3 | –
CC(CCc1ccccc1)NCC(O)c1ccc(O)c(C(N)=O)c1 (stereo not drawn) [Labetalol] | 2.68 | Most-DC | 8 | –
CNCCCC12CCC(c3ccccc31)c1ccccc12 [Maprotiline] | 0.18 | Amb.-DC | 5 | –
COC(=O)Nc1nc2ccc(C(=O)c3ccccc3)cc2[nH]1 [Mebendazole] | 0.13 | – | 3 | –
Cc1cccc(CN2CCN(C(c3ccccc3)c3ccc(Cl)cc3)CC2)c1 (stereo not drawn) [Meclizine] | – | No-DC | 1 | –
CN(C)C(=N)N=C(N)N [Metformin] | – | Less-DC | 1 | YES

SMILES | Cmax [1] [µM] | DILI con. (DILI-concern labeling) [2] | Hepa. (hepatotoxicity class) [2] | Metab (metabolic potential) [3]
Cn1cc[nH]c1=S [Methimazole] | 2.62 | – | – | –
CN(Cc1cnc2nc(N)nc(N)c2n1)c1ccc(C(=O)N[C@@H](CCC(=O)O)C(=O)O)cc1 [Methotrexate] | 0.77 | Most-DC | 3 | –
COCCc1ccc(OCC(O)CNC(C)C)cc1 (stereo not drawn) [Metoprolol] | 0.56 | – | – | –
CC(=O)Oc1cc(C(C)C)c(OCCN(C)C)cc1C [Moxisylyte] | 0.16 | – | 8 | –
CS(=O)(=O)Nc1ccc([N+](=O)[O-])cc1Oc1ccccc1 [Nimesulide] | 21.1 | – | – | YES
CC1COc2c(N3CCN(C)CC3)c(F)cc3c(=O)c(C(=O)O)cn1c23 (stereo not drawn) [Ofloxacin] | 9.96 | – | 3 | –
Fc1ccc([C@@H]2CCNC[C@H]2COc2ccc3c(c2)OCO3)cc1 [Paroxetine] | – | Less-DC | 8 | YES
C1CCC(C(CC2CCCCN2)C2CCCCC2)CC1 (stereo not drawn) [Perhexiline] | – | Most-DC | 8 | –
C[C@]12C=CC(=O)C=C1CC[C@@H]1[C@@H]2[C@@H](O)C[C@@]2(C)[C@H]1CC[C@]2(O)C(=O)CO [Prednisolone] | 0.68 | Less-DC | 3 | –
CC(C)NCC(O)COc1cccc2ccccc12 (stereo not drawn) [Propranolol] | – | – | – | YES
CCCc1cc(=O)[nH]c(=S)[nH]1 [Propylthiouracil] | 9.1 | – | 8 | –
CNC(=C[N+](=O)[O-])NCCSCc1ccc(CN(C)C)o1 [Ranitidine] | 1.79 | Less-DC | 5 | –
C=CC[C@@H]1/C=C(\C)C[C@H](C)C[C@H](OC)[C@H]2O[C@@](O)(C(=O)C(=O)N3CCCC[C@H]3C(=O)O[C@H](/C(C)=C/[C@@H]3CC[C@@H](O)[C@H](OC)C3)[C@H](C)[C@@H](O)CC1=O)[C@H](C)C[C@@H]2OC [Tacrolimus] | – | Less-DC | 5 | YES
CC/C(=C(\c1ccccc1)c1ccc(OCCN(C)C)cc1)c1ccccc1 [Tamoxifen] | – | – | – | YES
CN(C/C=C/C#CC(C)(C)C)Cc1cccc2ccccc12 [Terbinafine] | 4 | Most-DC | 8 | –
Clc1ccccc1CN1CCc2sccc2C1 [Ticlopidine] | 8.07 | – | – | –
CCCCNC(=O)NS(=O)(=O)c1ccc(C)cc1 [Tolbutamide] | 233 | – | – | –
CC(=O)CC(c1ccccc1)c1c(O)c2ccccc2oc1=O (stereo not drawn) [Warfarin] | 4.86 | – | – | –
CCOC(=O)CN[C@@H](C(=O)N1CC[C@H]1C(=O)NCc1ccc(/C(N)=N\O)cc1)C1CCCCC1 [Ximelagatran] | 0.3 | – | – | –
